biological target: T1, recombinant human baculovirus-expressed GST-tagged FASN (Homo sapiens, UniProt P49327); experiment: biochemical; conditions: not given
T1 construct: GST
T1 sequence (P49327 whole entry): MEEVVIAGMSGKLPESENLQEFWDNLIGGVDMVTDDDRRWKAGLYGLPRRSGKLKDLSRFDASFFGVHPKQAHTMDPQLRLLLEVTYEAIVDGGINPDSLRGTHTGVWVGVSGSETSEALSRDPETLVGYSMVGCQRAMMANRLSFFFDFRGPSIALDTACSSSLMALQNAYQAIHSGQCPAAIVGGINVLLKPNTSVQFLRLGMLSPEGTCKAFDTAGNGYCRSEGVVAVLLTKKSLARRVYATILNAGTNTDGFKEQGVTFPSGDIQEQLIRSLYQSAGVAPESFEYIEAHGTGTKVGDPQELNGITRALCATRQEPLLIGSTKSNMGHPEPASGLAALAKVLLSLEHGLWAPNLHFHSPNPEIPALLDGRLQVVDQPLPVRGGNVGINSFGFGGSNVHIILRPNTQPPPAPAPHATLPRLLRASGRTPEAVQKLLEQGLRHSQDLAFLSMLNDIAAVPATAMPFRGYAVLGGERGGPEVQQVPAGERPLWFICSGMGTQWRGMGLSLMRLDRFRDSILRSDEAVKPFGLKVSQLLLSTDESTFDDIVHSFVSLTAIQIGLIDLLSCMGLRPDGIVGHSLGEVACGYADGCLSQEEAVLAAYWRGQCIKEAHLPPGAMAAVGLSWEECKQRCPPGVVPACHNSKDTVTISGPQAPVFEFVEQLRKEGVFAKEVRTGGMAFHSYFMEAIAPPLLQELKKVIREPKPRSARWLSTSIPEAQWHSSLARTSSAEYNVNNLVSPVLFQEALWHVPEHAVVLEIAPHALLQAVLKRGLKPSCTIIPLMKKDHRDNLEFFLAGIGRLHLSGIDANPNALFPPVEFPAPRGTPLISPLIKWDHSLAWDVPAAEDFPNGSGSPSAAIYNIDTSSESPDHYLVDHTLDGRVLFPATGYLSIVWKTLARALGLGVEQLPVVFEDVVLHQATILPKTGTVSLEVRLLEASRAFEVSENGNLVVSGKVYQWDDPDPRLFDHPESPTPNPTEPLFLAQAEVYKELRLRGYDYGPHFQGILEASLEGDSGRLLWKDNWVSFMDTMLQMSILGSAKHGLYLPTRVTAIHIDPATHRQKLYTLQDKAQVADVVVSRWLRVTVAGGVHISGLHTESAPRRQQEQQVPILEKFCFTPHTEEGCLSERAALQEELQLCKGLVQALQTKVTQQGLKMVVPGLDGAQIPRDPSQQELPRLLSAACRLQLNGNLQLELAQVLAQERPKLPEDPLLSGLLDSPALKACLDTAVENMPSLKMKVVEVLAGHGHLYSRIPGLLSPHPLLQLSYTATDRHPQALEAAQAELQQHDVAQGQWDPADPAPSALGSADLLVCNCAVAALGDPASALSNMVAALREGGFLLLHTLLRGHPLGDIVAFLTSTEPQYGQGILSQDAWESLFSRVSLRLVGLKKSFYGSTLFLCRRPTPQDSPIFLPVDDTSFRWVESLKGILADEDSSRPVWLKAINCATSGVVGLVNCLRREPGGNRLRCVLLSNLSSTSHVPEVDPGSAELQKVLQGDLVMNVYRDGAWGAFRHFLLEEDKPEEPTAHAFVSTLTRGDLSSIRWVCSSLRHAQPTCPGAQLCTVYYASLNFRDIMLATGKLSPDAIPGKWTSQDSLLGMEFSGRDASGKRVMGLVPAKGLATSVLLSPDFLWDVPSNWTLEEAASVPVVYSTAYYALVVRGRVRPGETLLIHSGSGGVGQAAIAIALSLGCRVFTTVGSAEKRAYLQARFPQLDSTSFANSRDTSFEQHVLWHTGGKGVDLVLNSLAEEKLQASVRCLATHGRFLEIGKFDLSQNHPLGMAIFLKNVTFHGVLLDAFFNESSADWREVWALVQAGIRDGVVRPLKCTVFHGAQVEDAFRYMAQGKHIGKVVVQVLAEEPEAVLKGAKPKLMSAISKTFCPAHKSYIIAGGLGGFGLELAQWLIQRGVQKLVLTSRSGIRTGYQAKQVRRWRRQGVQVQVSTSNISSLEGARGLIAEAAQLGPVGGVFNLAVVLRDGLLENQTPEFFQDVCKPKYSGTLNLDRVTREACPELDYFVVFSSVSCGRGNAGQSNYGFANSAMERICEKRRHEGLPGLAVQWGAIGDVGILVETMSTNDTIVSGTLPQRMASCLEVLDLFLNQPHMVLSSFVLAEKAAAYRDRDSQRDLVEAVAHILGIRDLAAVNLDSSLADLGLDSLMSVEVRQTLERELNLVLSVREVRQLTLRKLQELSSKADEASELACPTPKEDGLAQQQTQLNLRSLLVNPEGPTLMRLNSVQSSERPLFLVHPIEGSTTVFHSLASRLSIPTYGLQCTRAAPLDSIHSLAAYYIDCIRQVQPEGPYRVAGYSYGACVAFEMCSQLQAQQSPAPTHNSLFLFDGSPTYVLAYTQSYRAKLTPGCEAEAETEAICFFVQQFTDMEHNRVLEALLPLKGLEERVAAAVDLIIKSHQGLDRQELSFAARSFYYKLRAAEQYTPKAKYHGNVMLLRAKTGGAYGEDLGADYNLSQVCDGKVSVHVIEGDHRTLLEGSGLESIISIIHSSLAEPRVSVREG

Structure (SMILES)	IC50
Cc1c(-c2ccc3c(c2)CCOC2(CCN(C(N)=O)CC2)O3)ccc2cccnc12 [Example 77, 7-(8-methyl-7-quinolyl)spiro[4,5-dihydro-1,3-benzodioxepine-2,4′-piperidine]-1′-carboxamide]	100 to 999 nM
CCNC(=O)N1CCC2(CC1)OCCc1cc(-c3ccc4cccnc4c3C)ccc1O2 [Example 78, N-Ethyl-7-(8-methyl-7-quinolyl)spiro[4,5-dihydro-1,3-benzodioxepine-2,4′-piperidine]-1′-carboxamide]	100 to 999 nM
CCONC(=O)N1CCC2(CC1)OCCc1cc(-c3ccc4cccnc4c3C)ccc1O2 [Example 79, N-Ethoxy-7-(8-methyl-7-quinolyl)spiro[4,5-dihydro-1,3-benzodioxepine-2,4′-piperidine]-1′-carboxamide]	1 to 99 nM
CONC(=O)N1CCC2(CC1)OCCc1cc(-c3ccc4cccnc4c3C)ccc1O2 [Example 80, N-Methoxy-7-(8-methyl-7-quinolyl)spiro[4,5-dihydro-1,3-benzodioxepine-2,4′-piperidine]-1′-carboxamide]	1 to 99 nM
Cn1cnc2cc(-c3ccc4c(c3)COC3(CCN(C(N)=O)CC3)O4)ccc21 [Example 82, 6-(1-Methylbenzimidazol-5-yl)spiro[4H-1,3-benzodioxine-2,4′-piperidine]-1′-carboxamide]	100 to 999 nM
CC(C)(C)OC(=O)N1CCC2(CC1)OCc1cc(-c3cnc4sccc4c3)ccc1O2 [Example 84, tert-Butyl 6-thieno[2,3-b]pyridin-5-ylspiro[4H-1,3-benzodioxine-2,4′-piperidine]-1′-carboxylate]	1000 to 10000 nM
NC(=O)N1CCC2(CC1)OCc1cc(-c3cnc4sccc4c3)ccc1O2 [Example 89, 6-thieno[2,3-b]pyridin-5-ylspiro[4H-1,3-benzodioxine-2,4′-piperidine]-1′-carboxamide]	1000 to 10000 nM
CCNC(=O)N1CCC2(CC1)OCc1cc(-c3ccc4cccnc4c3C)ccc1O2 [Example 117, N-Ethyl-6-(8-methyl-7-quinolyl)spiro[4H-1,3-benzodioxine-2,4′-piperidine]-1′-carboxamide]	1 to 99 nM

same assay, conditions: 5 nM FASN, 150 μM NADPH, 10 μM acetyl-CoA, 25 μM malonyl-CoA, 90 minutes incubation; read-out: IC50 data for Compounds of Formula I, Activity

Structure (SMILES)	IC50
CCONC(=O)N1CCC2(CCc3cc(-c4ccc5cccnc5c4Cl)ccc3O2)CC1 [Example 69, 6-(8-chloro-7-quinolyl)-N-ethoxy-spiro[chromane-2,4′-piperidine]-1′-carboxamide]	1 to 99 nM
CONC(=O)N1CCC2(CCc3cc(-c4ccc5cccnc5c4Cl)ccc3O2)CC1 [Example 70, 6-(8-chloro-7-quinolyl)-N-methoxy-spiro[chromane-2,4′-piperidine]-1′-carboxamide]	1 to 99 nM
CCOC(=O)N1CCC2(CCc3cc(-c4ccc5cccnc5c4Cl)ccc3O2)CC1 [Example 71, Ethyl 6-(8-chloro-7-quinolyl)spiro[chromane-2,4′-piperidine]-1′-carboxylate]	1000 to 10000 nM
NC(=O)N1CCC2(CCc3cc(-c4cnc5ccccc5c4)ccc3O2)CC1 [Example 72, 6-(3-Quinolyl)spiro[chromane-2,4′-piperidine]-1′-carboxamide]	100 to 999 nM
NC(=O)N1CCC2(CCc3cc(-c4ccc5occc5c4)ccc3O2)CC1 [Example 73, 6-(Benzofuran-5-yl)spiro[chromane-2,4′-piperidine]-1′-carboxamide]	1000 to 10000 nM
NC(=O)N1CCC2(CCc3cc(-c4ccc5ncsc5c4)ccc3O2)CC1 [Example 74, 6-(1,3-benzothiazol-6-yl)spiro[chromane-2,4′-piperidine]-1′-carboxamide]	1000 to 10000 nM
Cn1ccc2cc(-c3ccc4c(c3)CCC3(CCN(C(N)=O)CC3)O4)ccc21 [Example 75, 6-(1-Methylindol-5-yl)spiro[chromane-2,4′-piperidine]-1′-carboxamide]	100 to 999 nM
NC(=O)N1CCC2(CCc3cc(-c4ccc5[nH]ccc5c4)ccc3O2)CC1 [Example 76, 6-(1H-Indol-5-yl)spiro[chromane-2,4′-piperidine]-1′-carboxamide]	100 to 999 nM
Cn1cnc2cc(-c3ccc4c(c3)CCC3(CCN(C(N)=O)CC3)O4)ccc21 [Example 81, 6-(1-Methylbenzimidazol-5-yl)spiro[chromane-2,4′-piperidine]-1′-carboxamide]	100 to 999 nM
NC(=O)N1CCC2(CCc3cc(-c4ccc5scnc5c4)ccc3O2)CC1 [Example 83, 6-(1,3-Benzothiazol-5-yl)spiro[chromane-2,4′-piperidine]-1′-carboxamide]	100 to 999 nM
NC(=O)N1CCC2(CCc3cc(-c4cnc5sccc5c4)ccc3O2)CC1 [Example 85, 6-Thieno[2,3-b]pyridin-5-ylspiro[chromane-2,4′-piperidine]-1′-carboxamide]	1000 to 10000 nM
NC(=O)N1CCC2(CCc3cc(-c4ccc5ocnc5c4)ccc3O2)CC1 [Example 86, 6-(1,3-Benzoxazol-5-yl)spiro[chromane-2,4′-piperidine]-1′-carboxamide]	1000 to 10000 nM
CCNC(=O)N1CCC2(CCc3cc(-c4ccc5cccnc5c4C)ccc3O2)CC1 [Example 97, N-Ethyl-6-(8-methyl-7-quinolyl)spiro[chromane-2,4′-piperidine]-1′-carboxamide]	1 to 99 nM
Cc1c(-c2ccc3c(c2)CCC2(CCN(C(=O)NC(C)C)CC2)O3)ccc2cccnc12 [Example 98, N-Isopropyl-6-(8-methyl-7-quinolyl)spiro[chromane-2,4′-piperidine]-1′-carboxamide]	100 to 999 nM
CCCNC(=O)N1CCC2(CCc3cc(-c4ccc5cccnc5c4C)ccc3O2)CC1 [Example 99, 6-(8-Methyl-7-quinolyl)-N-propyl-spiro[chromane-2,4′-piperidine]-1′-carboxamide]	1 to 99 nM
Cc1c(-c2ccc3c(c2)CCC2(CCN(C(=O)NCC4CC4)CC2)O3)ccc2cccnc12 [Example 100, N-(Cyclopropylmethyl)-6-(8-methyl-7-quinolyl)spiro[chromane-2,4′-piperidine]-1′-carboxamide]	1 to 99 nM

Structure (SMILES)	IC50
CCONC(=O)N1CCC2(CCc3cc(-c4ccc5cccnc5c4C)ccc3O2)CC1 [Example 101, N-Ethoxy-6-(8-methyl-7-quinolyl)spiro[chromane-2,4′-piperidine]-1′-carboxamide]	1 to 99 nM
CCCONC(=O)N1CCC2(CCc3cc(-c4ccc5cccnc5c4C)ccc3O2)CC1 [Example 102, 6-(8-Methyl-7-quinolyl)-N-propoxy-spiro[chromane-2,4′-piperidine]-1′-carboxamide]	1 to 99 nM
Cc1c(-c2ccc3c(c2)CCC2(CCN(C(=O)NOC(C)C)CC2)O3)ccc2cccnc12 [Example 103, N-Isopropoxy-6-(8-methyl-7-quinolyl)spiro[chromane-2,4′-piperidine]-1′-carboxamide]	1 to 99 nM
Cc1c(-c2ccc3c(c2)CCC2(CCN(C(=O)NOCC(C)C)CC2)O3)ccc2cccnc12 [Example 104, N-Isobutoxy-6-(8-methyl-7-quinolyl)spiro[chromane-2,4′-piperidine]-1′-carboxamide]	100 to 999 nM
Cc1c(-c2ccc3c(c2)CCC2(CCN(C(=O)NO)CC2)O3)ccc2cccnc12 [Example 105, 6-(8-methyl-7-quinolyl)spiro[chromane-2,4′-piperidine]-1′-carbohydroxamic acid]	100 to 999 nM
Cc1c(-c2ccc3c(c2)CCC2(CCN(C(N)=O)CC2)O3)ccc2cccnc12 [Example 106, 6-(8-Methyl-7-quinolyl)spiro[chromane-2,4′-piperidine]-1′-carboxamide]	1 to 99 nM
CCONC(=O)N1CCC2(CCc3cc(-c4ccc5nccn5c4C)ccc3O2)CC1 [Example 107, N-Ethoxy-6-(5-methylimidazo[1,2-a]pyridin-6-yl)spiro[chromane-2,4′-piperidine]-1′-carboxamide]	1 to 99 nM
Cc1c(-c2ccc3c(c2)CCC2(CCN(C(=O)NOC(C)C)CC2)O3)ccc2nccn12 [Example 108, N-Isopropoxy-6-(5-methylimidazo[1,2-a]pyridin-6-yl)spiro[chromane-2,4′-piperidine]-1′-carboxamide]	1 to 99 nM
Cc1c(-c2ccc3c(c2)CCC2(CCN(C(N)=O)CC2)O3)ccc2nccn12 [Example 109, 6-(5-Methylimidazo[1,2-a]pyridin-6-yl)spiro[chromane-2,4′-piperidine]-1′-carboxamide]	100 to 999 nM
CCNC(=O)N1CCC2(CCc3cc(-c4ccc5nccn5c4C)ccc3O2)CC1 [Example 110, N-Ethyl-6-(5-methylimidazo[1,2-a]pyridin-6-yl)spiro[chromane-2,4′-piperidine]-1′-carboxamide]	1 to 99 nM
Cc1c(-c2ccc3c(c2)CCC2(CCN(C(=O)NC(C)C)CC2)O3)ccc2nccn12 [Example 111, N-Isopropyl-6-(5-methylimidazo[1,2-a]pyridin-6-yl)spiro[chromane-2,4′-piperidine]-1′-carboxamide]	100 to 999 nM
CCNC(=O)N1CCC2(CCc3cc(-c4ccc5ccnn5c4C)ccc3O2)CC1 [Example 112, N-Ethyl-6-(7-methylpyrazolo[1,5-a]pyridin-6-yl)spiro[chromane-2,4′-piperidine]-1′-carboxamide]	1 to 99 nM
Cc1c(-c2ccc3c(c2)CCC2(CCN(C(=O)NC(C)C)CC2)O3)ccc2ccnn12 [Example 113, N-Isopropyl-6-(7-methylpyrazolo[1,5-a]pyridin-6-yl)spiro[chromane-2,4′-piperidine]-1′-carboxamide]	100 to 999 nM
Cc1c(-c2ccc3c(c2)CCC2(CCN(C(N)=O)CC2)O3)ccc2ccnn12 [Example 114, 6-(7-Methylpyrazolo[1,5-a]pyridin-6-yl)spiro[chromane-2,4′-piperidine]-1′-carboxamide]	1 to 99 nM
CCONC(=O)N1CCC2(CCc3cc(-c4ccc5ccnn5c4C)ccc3O2)CC1 [Example 115, N-Ethoxy-6-(7-methylpyrazolo[1,5-a]pyridin-6-yl)spiro[chromane-2,4′-piperidine]-1′-carboxamide]	1 to 99 nM
Cc1c(-c2ccc3c(c2)CCC2(CCN(C(=O)NOC(C)C)CC2)O3)ccc2ccnn12 [Example 116, N-Isopropoxy-6-(7-methylpyrazolo[1,5-a]pyridin-6-yl)spiro[chromane-2,4′-piperidine]-1′-carboxamide]	1 to 99 nM
